The values that follow come from patent US8846733B2, “Oxazolyl-methylether derivatives as ALX receptor agonists” (Actelion Pharmaceuticals Ltd., priority 2010, dated 2014).

The nature of data set [1]: Plasma stability assay, rat plasma. The class given is in vitro ADME. Conditions: for half-life at 1 μM: pH 7.4, 37° C. The method, then:
(§1) Rat or human plasma adjusted at pH 7.4 with lactic acid or ammonium hydroxide, were equilibrated at 37° C. under orbital shaking in an incubator containing 5% CO2. The reaction was initiated by the addition of 1 μM of compounds (1 μl of 1 mM stock solution in DMSO in 999 μl of plasma). At 0.01 h, 0.25 h, 0.5 h, 1 h, 2 h, 4 h, 6 h and 24 h, aliquots (30 μl) were transferred in a 96 well plate containing 90 μl MeOH placed on ice to stop the reaction. After vortexing for 20 min at 1400 rpm on an Eppendorf thermomixer, the plates were centrifuged at 3220 g for 20 min at 4° C. and the supernatants were analyzed with LC-MSMS. Calibration samples in plasma containing 0.1% of dichlorvos were prepared and analysed in parallel to the incubation samples to allow the quantification. Half lives in hours were then calculated. In addition the remaining concentration of the respective compound after time Tlast relative to the concentration at the beginning has been determined (table 3).

Data set [2] is described as follows: Plasma stability assay, human plasma. It counts as in vitro ADME. The note with it: for remaining concentration at Tlast / half-life at 1 μM: human plasma; for half-life at 1 μM: pH 7.4, 37° C. On the procedure: as §1
Data set [3] in a line: Plasma stability assay with tritiated compounds, rat plasma. The class given is in vitro ADME. The method, then: (§2) Rat or human plasma adjusted at pH 7.4 with lactic acid were equilibrated at 37° C. under orbital shaking. The reaction was initiated by the addition of 10 μM of tritiated compound (7.5 μl of 1 mM stock solution in DMSO in 742.5 μl of plasma). At the beginning and after 4 h, 6 h and 24 h, aliquots (100 μl) were transferred in a tube containing 400 μl MeOH placed on ice to stop the reaction. After vortexing for 20 min at 1400 rpm on an Eppendorf thermomixer, the plates were centrifuged at 3220 g for 20 min at 4° C. and an aliquot of supernatants was analyzed with liquid chromatography coupled to a H3-radiodetector. The remaining pellet was further extracted with AcCN in three additional cycles of resuspension, mixing 20 min at 2000 rpm on an eppendorf thermomixer and centrifugation (3220 g for 20 min at 4° C.). The total radioactivity was measured in the collected supernatants. The final pellet was then solubilized in NaOH 1N and the total radioactivity was measured (table 4).

A short description of data set [4]: Plasma stability assay with tritiated compounds, human plasma. It counts as in vitro ADME. On the procedure: as §2
Data set [5] addresses T1, recombinant human ALX receptor (Homo sapiens, UniProt P25090).
T1 construct: expressed in transfected cells; host or cells: HEK293 (HEK293-hALXR-Gα16)
T1 sequence (P25090 1-351): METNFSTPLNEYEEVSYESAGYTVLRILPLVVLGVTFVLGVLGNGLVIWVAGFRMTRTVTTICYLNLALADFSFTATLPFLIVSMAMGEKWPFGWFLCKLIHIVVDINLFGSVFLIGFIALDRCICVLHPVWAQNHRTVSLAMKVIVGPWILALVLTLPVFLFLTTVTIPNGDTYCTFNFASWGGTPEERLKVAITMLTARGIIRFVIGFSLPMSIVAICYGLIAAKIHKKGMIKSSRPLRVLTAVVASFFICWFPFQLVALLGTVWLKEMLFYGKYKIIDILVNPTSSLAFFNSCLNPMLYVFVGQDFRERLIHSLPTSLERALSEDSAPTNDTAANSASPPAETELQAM
In words: Intracellular calcium measurements (FLIPR), ALX receptor agonistic activity. The class given is cell-based. Conditions: HEK293-hALXR-Gα16 cells; Table 1, exemplified compounds. On the procedure: The ALX receptor agonistic activity of the compounds of formula (I) is determined in accordance with the following experimental method.
Intracellular Calcium Measurements:
Cells expressing recombinant human ALX receptor and the G-protein Gα16 (HEK293-hALXR-Gα16) were grown to 80% confluency in Growing Medium (GM). Cells were detached from culture dishes with a cell dissociation buffer (Invitrogen, 13151-014), and collected by centrifugation at 1,000 rpm at rt for 5 min in Assay Buffer (AB) (equal parts of Hank's BSS (Gibco, 14065-049) and DMEM without Phenol Red (Gibco, 11880-028)). After 60 min incubation at 37° C. under 5% CO2 in AB supplemented with 1 μM Fluo-4 (AM) (Invitrogen, F14202) and 20 mM HEPES (Gibco, 15630-056), the cells were washed and resuspended in AB. They were then seeded onto 384-well FLIPR assay plates (Greiner, 781091) at 50,000 cells in 70 μl per well and sedimented by centrifugation at 1,000 rpm for 1 min. Stock solutions of test compounds were made up at a concentration of 10 mM in DMSO, and serially diluted in AB to concentrations required for activation dose response curves. WKYMVm (Phoenix Peptides) was used as a reference agonist. A FLIPR Tetra instrument (Molecular Devices) was operated according to the manufacturer's standard instructions, adding 4 μl of test compound dissolved at 10 mM in DMSO and diluted prior to the experiment in assay buffer to obtain the desired final concentration. Changes in fluorescence were monitored before and after the addition of test compounds at lex=488 nm and lem=540 nm. Emission peak values above base level after compounds addition were exported after base line subtraction. Values were normalized to high-level control (WKYMVm compound, 10 nM final concentration) after subtraction of the base line value (AB addition).
For orientation: Calcium assays in cells follow changes in intracellular calcium, usually with a dye or a luminescent sensor.

As usually defined, the half-life is the time needed for the level to fall by half in the phase considered. Low values mean rapid decline, high ones slow decline. For `CC(=O)c1coc(Cn2ncc(NC(=O)c3nc(C)oc3-c3cccc(C)c3)n2)n1` [reference compound 11, N-(2-((4-acetyloxazol-2-yl)methyl)-2H-1,2,3-triazol-4-yl)-2-methyl-5-(m-tolyl)oxazole-4-carboxamide], the “remaining concentration at Tlast” value in data set [1] (Tlast 6 h) was found to be 42%; in data set [2] (Tlast 6 h), 18%. Moreover, the values for the half-life at 1 μM in data set [1] and in data set [2] were 4.7 h and 2.4 h, respectively. In addition, the total radioactivity in data set [3] (rat plasma pellet, nominal incubation time 0.01 h) is on record as 419 dpm; in data set [3] (rat plasma pellet, nominal incubation time 4.0 h), 124853 dpm; in data set [3] (rat plasma pellet, nominal incubation time 6.4 h) it was 153683 dpm; in data set [3] (rat plasma pellet, nominal incubation time 24.4 h) it was 180032 dpm; in data set [3] (rat plasma supernatant, nominal incubation time 0.01 h, 10 μM tritiated compound) it was 173116 dpm; in data set [3] (rat plasma supernatant, nominal incubation time 4.0 h) it was 94798 dpm. In addition, the total radioactivity in data set [3] (rat plasma supernatant, nominal incubation time 6.4 h) is 45228 dpm; in data set [3] (rat plasma supernatant, nominal incubation time 24.4 h), 4816 dpm; in data set [4] (human plasma pellet, nominal incubation time 0.01 h), 918 dpm; in data set [4] (human plasma pellet, nominal incubation time 4.0 h) it was 170136 dpm; in data set [4] (human plasma pellet, nominal incubation time 6.4 h), 185420 dpm; in data set [4] (human plasma pellet, nominal incubation time 24.4 h) it was 227567 dpm. The total radioactivity is recorded as 158854 dpm in data set [4] (human plasma supernatant, nominal incubation time 0.01 h, 10 μM tritiated compound); 38918 dpm in data set [4] (human plasma supernatant, nominal incubation time 4.0 h); 10532 dpm in data set [4] (human plasma supernatant, nominal incubation time 6.4 h); 3134 dpm in data set [4] (human plasma supernatant, nominal incubation time 24.4 h). Also, the “association of drug related material with plasma proteins, in words” value in data set [4] (rat and human plasma, tritiated compound, radioactivity moving from supernatant to pellet) is recorded as “strong association of drug related material with plasma proteins”.
The EC50 is the concentration at which the effect is half-maximal. For `COCc1coc(Cn2ncc(NC(=O)c3nc(C)oc3-c3cccc(C)c3)n2)n1` [Example 2, N-(2-((4-(Methoxymethyl)oxazol-2-yl)methyl)-2H-1,2,3-triazol-4-yl)-2-methyl-5-(m-tolyl)oxazole-4-carboxamide], the “remaining concentration at Tlast” value in data set [1] (Tlast 24 h) is 88%; in data set [2] (Tlast 24 h), 101%. Besides, the half-life at 1 μM in data set [1] and in data set [2] was greater than 24 h each time. Also, in data set [2] (rat and human plasma, compared with reference compound 11 / compounds of WO 2009/077990), the “stability in plasma, in words” value was “remarkably more stable”. Besides, in data set [5], the EC50 came out at 1.7 nM.
